Values quoted from earlier work as cited in patent publication US4024245A, “Antibiotic A-30912 and process for production thereof” (priority 1976, dated 1977).

System: dermatophytes
Settings: F. Benz et al., Helv. Chim. Acta 57, 2459-2477 (1974)

## Echinocandin B
  activity against dermatophytes: inactive against dermatophytes
